These results are taken from ChEMBL document CHEMBL1125153, “Structure-activity correlations for psychotomimetics. 1. Phenylalkylamines: electronic, volume, and hydrophobicity parameters” (1990).

A value given as a limit tells only on which side of the number the result lay.

Holding throughout (type): functional
Assay [1] is filed under the species Homo sapiens. Briefly: Log value of hallucinogenic activity was determined.
For assay [2], the species on record is Homo sapiens. The experiment in a line: Hallucinogenic activity i.e; ratio of effective dose of mescaline to the effective dose in human.
Another assay concerns Rattus norvegicus. Briefly: Effective dose in rats trained on 1 mg/kg DOM.

Usually ED50 stands for the midpoint of the dose-response relation. A higher ED50 goes with weaker potency. As for `COc1cc(CC(C)N)cc2c1OCO2` (stereo not drawn), the Log activity in the assay listed under Homo sapiens [1] was determined as 0.431. Besides, the Activity in the assay filed under Homo sapiens [2] stood at 2.7 MU. In the assay on Rattus norvegicus, this compound had an ED50 of 3.66 mg/kg.
Regarding `COc1cc(OC)c(CC(C)N)c(OC)c1` (stereo not drawn), the Log activity in the assay filed under Homo sapiens [1] is given as 1. Also, the Activity in the assay filed under Homo sapiens [2] was 10 MU. The compound also registered an ED50 with Rattus norvegicus of 3.69 mg/kg.
In the assay filed under Homo sapiens [1], `CCOc1c(OC)cc(CCN)cc1SC` had a Log activity of 0.778. Further, in the assay listed under Homo sapiens [2], the Activity came out at 6 MU.
In turn, `CCOc1cc(CCN)cc(OCC)c1OC` came in with a Log activity in the assay filed under Homo sapiens [1] of -0.301. Further, in the assay listed under Homo sapiens [2], the Activity was below 1 MU.
Compound `COc1c(CC(C)N)ccc2c1OCO2` (stereo not drawn) came in with a Log activity in the assay filed under Homo sapiens [1] of 1. For the same compound, the Activity in the assay listed under Homo sapiens [2] came to 10 MU.
Taken in the same sequence, the figures for `CCOc1cc(CCN)cc(OCC)c1SCC` were -0.301 and below 1 MU.
For `CCOc1c(OC)cc(CCN)cc1SCC`, the Log activity in the assay listed under Homo sapiens [1] stood at 0.301. The Activity in the assay filed under Homo sapiens [2] was determined as 2 MU.
The compound `CCOc1cc(CCN)cc(OC)c1SCC` displayed a Log activity in the assay filed under Homo sapiens [1] of 0.602. The Activity in the assay filed under Homo sapiens [2] was 4 MU.
In the assay filed under Homo sapiens [1], `COc1cc(CC(C)N)c(OC)c(OC)c1` (stereo not drawn) had a Log activity of 0.602. Moreover, the Activity in the assay filed under Homo sapiens [2] is on record as 4 MU. In addition, in the assay with Rattus norvegicus, the 50% effect level (ED50) was put at a dose of 16.5 mg/kg.
Compound `COc1cc(CC(C)N)c(OC)c2c1OCO2` (stereo not drawn) yielded a Log activity in the assay listed under Homo sapiens [1] of 1.079. In addition, the Activity in the assay listed under Homo sapiens [2] was determined as 12 MU.
As for `COc1cc(CC(C)N)c(OC)cc1C` (stereo not drawn) [DOM], the Log activity in the assay listed under Homo sapiens [1] amounted to 1.903. Further, in the assay listed under Homo sapiens [2], the Activity stood at 80 MU. Further, the median effective dose (ED50) with Rattus norvegicus worked out at 0.44 mg/kg.
As for `COc1ccc(CCN)cc1OC`, in the assay filed under Homo sapiens [1], the Log activity was -1. Further, in the assay filed under Homo sapiens [2], the Activity is reported as below 0.2 MU.
Consider `CCCCOc1c(OC)cc(CCN)cc1OC`, for which the Log activity in the assay filed under Homo sapiens [1] was determined as 0.301. In the assay listed under Homo sapiens [2], the Activity worked out at 2 MU.
Regarding `CCCCc1cc(OC)c(CC(C)N)cc1OC` (stereo not drawn), in the assay filed under Homo sapiens [1], the Log activity was found to be 1.602. Besides, the Activity in the assay listed under Homo sapiens [2] is 40 MU. In the assay on Rattus norvegicus, it took a dose of 0.91 mg/kg to reach the 50% effect level (ED50).
The compound `CCOc1cc(CCN)cc(SC)c1OCC` displayed a Log activity in the assay filed under Homo sapiens [1] of 0.301. The Activity in the assay filed under Homo sapiens [2] was determined as 2 MU.
As for `COc1cc(OC)c(OC)cc1CCN`, in the assay filed under Homo sapiens [1], the Log activity is -0.301. In addition, the Activity in the assay filed under Homo sapiens [2] is listed as below 1 MU.
Consider `CCCSc1c(OC)cc(CCN)cc1OC`, for which, in the assay listed under Homo sapiens [1], the Log activity was 1.204. For the same compound, in the assay listed under Homo sapiens [2], the Activity came to 16 MU.
Taken in the same sequence, the figures for `COc1ccc(CC(C)N)cc1OC` (stereo not drawn) were -0.301 and 0.5 MU.
Taken in the same sequence, the figures for `COc1ccc2c(c1CC(C)N)OCO2` (stereo not drawn) were 1 and 10 MU.
`COc1cc(CC(C)N)c(OC)cc1CC(C)C` (stereo not drawn): the Log activity in the assay listed under Homo sapiens [1] was 1.301. In addition, the Activity in the assay filed under Homo sapiens [2] came to 20 MU.
Turning to `CCOc1cc(CCN)cc(OC)c1OCC`, the Log activity in the assay filed under Homo sapiens [1] was found to be 0.176. Further, in the assay filed under Homo sapiens [2], the Activity is given as 1.5 MU.
For the compound `COc1cc(CC(C)N)cc(OC)c1OC` (stereo not drawn), the Log activity in the assay filed under Homo sapiens [1] turned out to be 0.301. The Activity in the assay listed under Homo sapiens [2] is 2 MU. In addition, the ED50 in the assay on Rattus norvegicus came to 6.34 mg/kg.
For `CC(N)Cc1ccc2c(c1)OCO2` (stereo not drawn) [TENAMFETAMINE], the Log activity in the assay filed under Homo sapiens [1] worked out at 0.477. Further, the Activity in the assay filed under Homo sapiens [2] was determined as 3 MU. Moreover, in the assay on Rattus norvegicus, the 50% effect level (ED50) was put at a dose of 1.68 mg/kg.
`COc1ccc(OC)c(CC(C)N)c1` (stereo not drawn): in the assay filed under Homo sapiens [1], the Log activity was 0.903. For the same compound, the Activity in the assay listed under Homo sapiens [2] was 8 MU. Besides, in the assay on Rattus norvegicus, the 50% effect level (ED50) was put at a dose of 5.51 mg/kg.
Compound `CCc1cc(OC)c(CCN)cc1OC` yielded a Log activity in the assay filed under Homo sapiens [1] of 1.255. Besides, the Activity in the assay filed under Homo sapiens [2] was found to be 18 MU.
Compound `CCOc1c(OC)cc(CCN)cc1OC` showed a Log activity in the assay filed under Homo sapiens [1] of 0.845. Besides, the Activity in the assay listed under Homo sapiens [2] was determined as 7 MU.
For the compound `COc1cc(CC(C)N)c(OC)c(OC)c1OC` (stereo not drawn), the Log activity in the assay filed under Homo sapiens [1] was 0.778. Also, the Activity in the assay filed under Homo sapiens [2] came out at 6 MU.
The compound `COc1ccc(CC(C)N)c2c1OCO2` (stereo not drawn) had a Log activity in the assay filed under Homo sapiens [1] of 0.477. The Activity in the assay listed under Homo sapiens [2] was 3 MU.
As to `COc1cc(SC)c(OC)cc1CC(C)N` (stereo not drawn), the Log activity in the assay filed under Homo sapiens [1] is 1.602. Moreover, the Activity in the assay filed under Homo sapiens [2] turned out to be 40 MU.
In turn, `COc1cc(SC(C)C)c(OC)cc1CC(C)N` (stereo not drawn) had a Log activity in the assay listed under Homo sapiens [1] of 1.602. Moreover, in the assay listed under Homo sapiens [2], the Activity is 40 MU.
`CCCCSc1c(OC)cc(CCN)cc1OC` showed a Log activity in the assay filed under Homo sapiens [1] of 0.477. Further, the Activity in the assay filed under Homo sapiens [2] came to 3 MU.
In the same order, the values of `COc1ccc(CC(C)N)cc1` (stereo not drawn) [PARA-METHOXYAMPHETAMINE] are 0.699 and 5 MU.
Compound `CCCCCc1cc(OC)c(CC(C)N)cc1OC` (stereo not drawn) registered a Log activity in the assay listed under Homo sapiens [1] of 1. The Activity in the assay filed under Homo sapiens [2] amounted to 10 MU.
On to `CCOc1cc(CCN)cc(SC)c1OC`, for which the Log activity in the assay filed under Homo sapiens [1] is listed as -0.301. Moreover, the Activity in the assay filed under Homo sapiens [2] is below 1 MU.
With `CCSc1c(OC)cc(CCN)cc1OC`, the Log activity in the assay filed under Homo sapiens [1] is reported as 1.301. Besides, the Activity in the assay listed under Homo sapiens [2] is listed as 20 MU.
In the case of `CCc1cc(OC)c(CC(C)N)cc1OC` (stereo not drawn), the Log activity in the assay listed under Homo sapiens [1] stood at 2. In addition, the Activity in the assay filed under Homo sapiens [2] amounted to 100 MU. In the assay on Rattus norvegicus, this compound registered an ED50 of 0.23 mg/kg.
For `CCOc1cc(CCN)cc(SCC)c1OC`, the Log activity in the assay filed under Homo sapiens [1] was -0.301. In the assay filed under Homo sapiens [2], the Activity is given as below 1 MU.
As to `COc1ccc(CC(C)N)c(OC)c1OC` (stereo not drawn), the Log activity in the assay listed under Homo sapiens [1] amounted to 0.301. Besides, the Activity in the assay filed under Homo sapiens [2] is on record as 2 MU. In the assay with Rattus norvegicus, the 50% effect level (ED50) was put at a dose of 7.8 mg/kg.
`CCCOc1c(OC)cc(CCN)cc1OC` displayed a Log activity in the assay listed under Homo sapiens [1] of 0.778. In the assay listed under Homo sapiens [2], the Activity is given as 6 MU.
For the compound `COc1cc2c(cc1CC(C)N)OCO2` (stereo not drawn), the Log activity in the assay filed under Homo sapiens [1] turned out to be 1. Further, the Activity in the assay filed under Homo sapiens [2] stood at 10 MU.
In the case of `CCCc1cc(OC)c(CC(C)N)cc1OC` (stereo not drawn), the Log activity in the assay filed under Homo sapiens [1] amounted to 1.903. Moreover, the Activity in the assay listed under Homo sapiens [2] is 80 MU. Moreover, in the assay with Rattus norvegicus, the 50% effect level (ED50) was put at a dose of 0.17 mg/kg.
On to `COc1cc(CCN)c(OC)cc1C`, for which, in the assay filed under Homo sapiens [1], the Log activity was found to be 1.301. The Activity in the assay listed under Homo sapiens [2] came out at 20 MU. The ED50 with Rattus norvegicus came out at 1.31 mg/kg.
Turning to `CCOc1cc(CCN)cc(OC)c1OC`, the Log activity in the assay filed under Homo sapiens [1] amounted to 0. For the same compound, the Activity in the assay listed under Homo sapiens [2] is recorded as 1 MU.
As to `COc1ccc(CCN)cc1`, in the assay filed under Homo sapiens [1], the Log activity is -0.301. Moreover, the Activity in the assay listed under Homo sapiens [2] is listed as below 1 MU.
Consider `CCOc1cc(CCN)cc(OC)c1SC`, for which the Log activity in the assay listed under Homo sapiens [1] worked out at 0.602. Also, the Activity in the assay filed under Homo sapiens [2] was 4 MU.
On to `COc1cc(CCN)cc(SC)c1OC`, for which, in the assay listed under Homo sapiens [1], the Log activity was found to be 0.778. Also, the Activity in the assay filed under Homo sapiens [2] was determined as 6 MU.
For the compound `COc1ccc(OC)c(OC)c1CC(C)N` (stereo not drawn), the Log activity in the assay listed under Homo sapiens [1] is reported as 1. In the assay listed under Homo sapiens [2], the Activity is recorded as 10 MU.
The compound `CCCOc1cc(OC)c(CC(C)N)cc1OC` (stereo not drawn) displayed a Log activity in the assay listed under Homo sapiens [1] of 1.301. In addition, in the assay filed under Homo sapiens [2], the Activity worked out at 20 MU.
As for `CCOc1cc(CCN)cc(SCC)c1OCC`, the Log activity in the assay listed under Homo sapiens [1] was -0.301. The Activity in the assay filed under Homo sapiens [2] is below 1 MU.
In the assay listed under Homo sapiens [1], `CCOc1cc(OC)c(CC(C)N)cc1OC` (stereo not drawn) showed a Log activity of 1.301. Moreover, the Activity in the assay filed under Homo sapiens [2] is 20 MU.
In the case of `CCOc1cc(CCN)cc(OCC)c1OCC`, the Log activity in the assay filed under Homo sapiens [1] is listed as -0.301. Moreover, the Activity in the assay listed under Homo sapiens [2] is reported as below 1 MU.
Take `CCSc1cc(CCN)cc(OC)c1OC`: the Log activity in the assay listed under Homo sapiens [1] was 0.778. In the assay filed under Homo sapiens [2], the Activity turned out to be 6 MU.
As to `COc1cc(CC(C)N)cc(C)c1OCc1ccccc1` (stereo not drawn), the Log activity in the assay listed under Homo sapiens [1] is 0.301. For the same compound, in the assay listed under Homo sapiens [2], the Activity came out at 2 MU.
Taken in the same sequence, the figures for `COc1cc(CCN)cc(OC)c1SC` were 1.079 and 12 MU.
`CCCOc1cc(CCN)cc(OC)c1OC` showed a Log activity in the assay listed under Homo sapiens [1] of -0.301. Also, the Activity in the assay listed under Homo sapiens [2] is on record as below 1 MU.
In the assay filed under Homo sapiens [1], `COc1ccc(CC(C)N)c(OC)c1` (stereo not drawn) gave a Log activity of 0.699. The Activity in the assay filed under Homo sapiens [2] is recorded as 5 MU. The compound further gave a median effective dose (ED50) with Rattus norvegicus of 4.88 mg/kg.
`COc1cc(CCN)cc(OC)c1OC` [MESCALINE]: the Log activity in the assay listed under Homo sapiens [1] stood at 0. The Activity in the assay filed under Homo sapiens [2] turned out to be 1 MU. Besides, the ED50 in the assay on Rattus norvegicus worked out at 14.6 mg/kg.
In the assay filed under Homo sapiens [1], `COc1c(CC(C)N)cc2c(c1OC)OCO2` (stereo not drawn) had a Log activity of 0.699. In the assay listed under Homo sapiens [2], the Activity is listed as 5 MU.
Taken in the same sequence, the figures for `NCCc1ccc2c(c1)OCO2` were 0 and 1 MU.
On to `COc1ccc(CCN)c(OC)c1OC`, for which the Log activity in the assay filed under Homo sapiens [1] was -0.301. The Activity in the assay filed under Homo sapiens [2] is recorded as below 1 MU.
The compound `CCOc1cc(CCN)cc(OCC)c1SC` yielded a Log activity in the assay listed under Homo sapiens [1] of -0.301. The Activity in the assay listed under Homo sapiens [2] is on record as below 1 MU.
The compound `COc1cc(OC)c(OC)cc1CC(C)N` (stereo not drawn) returned a Log activity in the assay filed under Homo sapiens [1] of 1.301. Besides, the Activity in the assay listed under Homo sapiens [2] is given as 20 MU.
